Earlier results as cited in publication PMC12623819 (Scientific Reports, 2025).

Columns and labels:
[1] = tested on: nectin-4-expressing cells; settings: in vitro
[2] = tested on: cell surface-expressed nectin-4

## enfortumab vedotin: ADC comprising a human nectin-4 antibody conjugated to the microtubule-disrupting agent MMAE
[1]
  induction of cell death: induce cell death in a dose-dependent manner
[2]
  binding to cell surface-expressed nectin-4: high affinity
